Series [1] in a line: Cmax in C57BL/6 mouse blood xenografted mouse MC38 cells at 1.88 mg/kg,iv and measured after 72 hrs by LC-MS/MS analysis. Type of series: ADME, organism-based, MC-38. Also on record: time 72 hrs, dose 1.88 mg/kg, route iv.
Series [2] is described as follows: AUC (0 to 72 hrs) in C57BL/6 mouse xenografted with mouse MC38 cells at 3.75 mg/kg,iv and measured after 4 weeks by LC-MS/MS analysis. The series is classed as ADME, organism-based, MC-38. Also noted: dose 3.75 mg/kg, time 4 weeks, route iv. As to conditions: in vivo.
Series [3] in a line: Cmax in C57BL/6 mouse tumor xenografted mouse MC38 cells at 1.88 mg/kg,iv and measured after 72 hrs by LC-MS/MS analysis. The series is classed as ADME, organism-based, Neoplasm, MC-38. Also noted: dose 1.88 mg/kg, time 72 hrs, route iv.
Series [4] in a line: Cmax in C57BL/6 mouse xenografted with mouse MC38 cells at 3.75 mg/kg,iv and measured after 4 weeks by LC-MS/MS analysis. Type of series: ADME, organism-based, MC-38. Also on record: dose 3.75 mg/kg, time 4 weeks, route iv. As to conditions: in vivo.
The nature of series [5]: AUC (0 to 72 hrs) in C57BL/6 mouse heart xenografted mouse MC38 cells at 1.88 mg/kg,iv and measured after 72 hrs by LC-MS/MS analysis. Also noted: time 72 hrs, dose 1.88 mg/kg, route iv. The series is classed as ADME, organism-based, MC-38.
The nature of series [6]: AUC (0 to 24 hrs) in rat at 3 mg/kg,iv for 3 months. Type of series: ADME, organism-based. Also on record: time 3 months, dose 3 mg/kg, route iv. As to conditions: in vivo.
Series [7] in a line: AUC (0 to 72 hrs) in C57BL/6 mouse tumor xenografted mouse MC38 cells at 1.88 mg/kg,iv and measured after 72 hrs by LC-MS/MS analysis. Type of series: ADME, organism-based, Neoplasm, MC-38. Also on record: dose 1.88 mg/kg, time 72 hrs, route iv.
Series [8] can be described thus: Tmax in C57BL/6 mouse heart xenografted mouse MC38 cells at 1.88 mg/kg,iv and measured after 72 hrs by LC-MS/MS analysis. The series is classed as ADME, organism-based, MC-38.
The nature of series [9]: Ratio of AUC in tumor to heart in C57BL/6 mouse xenografted mouse MC38 cells at 1.88 mg/kg,iv and measured after 72 hrs by LC-MS/MS analysis. As to conditions: in vivo. The series is classed as ADME, organism-based.
Series [10] can be described thus: Tmax in C57BL/6 mouse tumor xenografted mouse MC38 cells at 1.88 mg/kg,iv and measured after 72 hrs by LC-MS/MS analysis. The series is classed as ADME, organism-based, Neoplasm, MC-38.
Series [11] in a line: Cmax in C57BL/6 mouse heart xenografted mouse MC38 cells at 1.88 mg/kg,iv and measured after 72 hrs by LC-MS/MS analysis. Type of series: ADME, organism-based, MC-38. Also noted: time 72 hrs, dose 1.88 mg/kg, route iv.
Series [12] can be described thus: Ratio of AUC in tumor to blood in C57BL/6 mouse xenografted mouse MC38 cells at 1.88 mg/kg,iv and measured after 72 hrs by LC-MS/MS analysis. The series is classed as ADME, organism-based. As to conditions: read-out: Ratio AUC.
A short description of series [13]: AUC (0 to 72 hrs) in C57BL/6 mouse blood xenografted mouse MC38 cells at 1.88 mg/kg,iv and measured after 72 hrs by LC-MS/MS analysis. The series is classed as ADME, organism-based, MC-38. Also noted: dose 1.88 mg/kg, time 72 hrs, route iv.
A short description of series [14]: Ratio of AUC in heart to blood in C57BL/6 mouse xenografted mouse MC38 cells at 1.88 mg/kg,iv and measured after 72 hrs by LC-MS/MS analysis. As to conditions: read-out: Ratio AUC. Type of series: ADME, organism-based.
A short description of series [15]: Tmax in C57BL/6 mouse blood xenografted mouse MC38 cells at 1.88 mg/kg,iv and measured after 72 hrs by LC-MS/MS analysis. Type of series: ADME, organism-based, MC-38.
A short description of series [16]: Prodrug conversion in C57BL/6 mouse xenografted mouse MC38 cells assessed as BMS-986260 ratio of AUC in heart to blood at 8 mg/kg,iv and measured after 72 hrs by LC-MS/MS analysis. As to conditions: other tissue. The series is classed as ADME, organism-based, MC-38.
A short description of series [17]: Prodrug conversion in heart of C57BL/6 mouse xenografted mouse MC38 cells assessed as BMS-986260 Tmax at 8 mg/kg,iv and measured after 72 hrs by LC-MS/MS analysis. The series is classed as ADME, organism-based, MC-38. As to conditions: in vivo.
Series [18] in a line: Toxicity in rat assessed as mortality at 3 mg/kg,iv for 3 months. Type of series: organism-based. As to conditions: in vivo, 2190 h.
Series [19] can be described thus: Prodrug conversion in blood of C57BL/6 mouse xenografted mouse MC38 cells assessed as BMS-986260 ratio of AUC in tumor to blood at 8 mg/kg,iv and measured after 72 hrs by LC-MS/MS analysis. As to conditions: tumour. Type of series: ADME, organism-based, MC-38.
Series [20] can be described thus: Drug concentration in C57BL/6 mouse plasma at 6 mg/kg,iv and measured after 24 hrs by LC-MS/MS analysis. The series is classed as ADME, organism-based.
A short description of series [21]: Prodrug conversion in heart of C57BL/6 mouse xenografted mouse MC38 cells assessed as BMS-986260 Cmax at 8 mg/kg,iv and measured after 72 hrs by LC-MS/MS analysis. The series is classed as ADME, organism-based, MC-38. Also noted: dose 8 mg/kg, time 72 hrs, route iv. As to conditions: in vivo.
Series [22] in a line: Prodrug conversion in tumor of C57BL/6 mouse xenografted mouse MC38 cells assessed as BMS-986260 Tmax at 8 mg/kg,iv and measured after 72 hrs by LC-MS/MS analysis. Type of series: ADME, organism-based, Neoplasm, MC-38. As to conditions: in vivo.
A short description of series [23]: Prodrug conversion in blood of C57BL/6 mouse xenografted mouse MC38 cells assessed as BMS-986260 ratio of AUC in tumor to heart at 8 mg/kg,iv and measured after 72 hrs by LC-MS/MS analysis. Type of series: ADME, organism-based, MC-38. As to conditions: in vivo.
Series [24] can be described thus: AUC (0 to 72 hrs) in rat at 3 mg/kg,iv for 3 months. Type of series: ADME, organism-based. Also noted: dose 3 mg/kg, time 3 months, route iv. As to conditions: in vivo.
A short description of series [25]: Prodrug conversion in tumor of C57BL/6 mouse xenografted mouse MC38 cells assessed as BMS-986260 AUC (0 to 72 hrs) at 8 mg/kg,iv and measured after 72 hrs by LC-MS/MS analysis. The series is classed as ADME, organism-based, Neoplasm, MC-38. Also noted: time 72 hrs, dose 8 mg/kg, route iv. As to conditions: in vivo.
The nature of series [26]: Prodrug conversion in heart of C57BL/6 mouse xenografted mouse MC38 cells assessed as BMS-986260 AUC (0 to 72 hrs) at 8 mg/kg,iv and measured after 72 hrs by LC-MS/MS analysis. The series is classed as ADME, organism-based, MC-38. As to conditions: in vivo. Also on record: time 72 hrs, dose 8 mg/kg, route iv.
A short description of series [27]: Prodrug conversion in blood of C57BL/6 mouse xenografted mouse MC38 cells assessed as BMS-986260 AUC (0 to 72 hrs) at 8 mg/kg,iv and measured after 72 hrs by LC-MS/MS analysis. Type of series: ADME, organism-based, MC-38. Also on record: time 72 hrs, dose 8 mg/kg, route iv. As to conditions: in vivo.
Series [28] in a line: Stability in rat plasma assessed as parent compound remaining after 24 hrs by HPLC-MS analysis. As to conditions: read-out: Stability. The series is classed as ADME, cell-free.
The nature of series [29]: AUC (0 to 72 hrs) in rat at 40 mg/kg,iv for 3 months. Type of series: ADME, organism-based. Also on record: time 3 months, dose 40 mg/kg, route iv. As to conditions: in vivo.
The nature of series [30]: AUC in C57BL/6 mouse plasma at 6 mg/kg,iv and measured upto 24 hrs by LC-MS/MS analysis. The series is classed as ADME, organism-based. Also on record: dose 6 mg/kg, time < 24 hrs, route iv.
A short description of series [31]: Stability in mouse plasma assessed as parent compound remaining after 24 hrs by HPLC-MS analysis. Type of series: ADME, cell-free. As to conditions: read-out: Stability.
The next series deals with MC-38. Briefly: Antitumor activity against mouse MC38 cells allografted in C57BL/6 mouse assessed as reduction in tumor volume at 40 to 80 mg/kg, iv for 4 weeks in presence of anti-PD-1 antibody. Type of series: functional, organism-based. As to conditions: dose 40-80 mg/kg.
The nature of series [32]: Toxicity in C57BL/6 mouse at 80 mg/kg,iv. The series is classed as organism-based. As to conditions: in vivo.
Series [33] is described as follows: Prodrug conversion in blood of C57BL/6 mouse xenografted mouse MC38 cells assessed as BMS-986260 Cmax at 8 mg/kg,iv and measured after 72 hrs by LC-MS/MS analysis. The series is classed as ADME, organism-based, MC-38. Also noted: dose 8 mg/kg, time 72 hrs, route iv. As to conditions: in vivo.
Series [34] in a line: Prodrug conversion in tumor of C57BL/6 mouse xenografted mouse MC38 cells assessed as BMS-986260 Cmax at 8 mg/kg,iv and measured after 72 hrs by LC-MS/MS analysis. Type of series: ADME, organism-based, Neoplasm, MC-38. Also on record: dose 8 mg/kg, time 72 hrs, route iv. As to conditions: in vivo.
A short description of series [35]: Prodrug conversion in blood of C57BL/6 mouse xenografted mouse MC38 cells assessed as BMS-986260 Tmax at 8 mg/kg,iv and measured after 72 hrs by LC-MS/MS analysis. The series is classed as ADME, organism-based, MC-38. As to conditions: in vivo.

The source made the active and inactive calls. The rule behind the calls is not given here. Numbered stars: 1 amine (or outer) side, 2 acyl side, 3 side chain; on linkers, the order of the positions; unused ones are H or OH. Square brackets hold non-standard residues; d marks the D form. Peptide text beside a SMILES is read from it. * marks the point of attachment. X1 = N#Cc1cnc2ccc(-c3c(-c4ccc(F)c(Cl)c4)ncn3CCOCN*)nn12; C18 diacid = O=C(O)CCCCCCCCCCCCCCCCC(=O)*; γGlu = O=C(O)[C@H](CCC(=O)[*:2])N[*:1]; PABC = O=C(OCc1ccc(N[*:1])cc1)[*:2]; AEEA = NCCOCCOCC(=O)O

What is called Cmax is the peak of the concentration-time curve. Broadly, the AUC(0-t) is the area under the concentration-time curve up to a stated or last time point. Lower therefore signals low exposure. As usually defined, the Tmax is the time at which the peak concentration occurs. In general, AUC refers to the area under the concentration-time curve, a measure of exposure.

Consider `N#Cc1cnc2ccc(-c3c(-c4ccc(F)c(Cl)c4)ncn3CCO)nn12`, for which the Cmax in series [1] turned out to be 1400 nM; in series [3], 1500 nM; in series [4] it was 1500 nM; in [11], 2500 nM. The compound further yielded an area under the curve AUC(0-t) at 672 h in series [2] of 39 µM·h. Further, the values for the AUC(0-t) at 72 h in series [5], in series [7] and in series [13] were 10 µM·h, 6.1 µM·h and 5.8 µM·h, respectively. The compound further registered an AUC(0-t) at 2190 h in [6] of 27 µM·h. In addition, the Tmax in [8], in series [10] and in series [15] was 1 h each time. Moreover, the “Ratio AUC” value in series [9] came out at 0.61. Also, the Kp at 72 h in series [12] is 1.1; in series [14], 1.7.
In the case of `CC(C)C[C@H](NC(=O)COCCOCCNC(=O)COCCOCCNC(=O)CC[C@H](NC(=O)CC[C@H](NC(=O)CCCCCCCCCCCCCCCCC(=O)O)C(=O)O)C(=O)O)C(=O)N[C@@H](CO)C(=O)NCC(=O)N[C@@H](CCCCN)C(=O)Nc1ccc(COC(=O)NCOCCn2cnc(-c3ccc(F)c(Cl)c3)c2-c2ccc3ncc(C#N)n3n2)cc1` ({C18 diacid-γGlu-γGlu-AEEA-AEEA}-LSGK[PABC]-X1), the entries for the “Ratio AUC” value in series [16], in [19] and in series [23] were 1.7, 3.1 and 1.8, respectively. For the same compound, the figures for the time of peak concentration (Tmax) in series [17], in series [22] and in series [35] were 8 h, 1 h and 1 h, respectively. The Activity entry in series [18] and in series [32] was “Non-Toxic” throughout. In addition, in [20], the concentration at 24 h was found to be 5200 nM. Moreover, the Cmax was found to be 200 nM in [21], 120 nM in series [33] and 310 nM in [34]. Besides, the AUC(0-t) at 2190 h was found to be 15 µM·h in series [24], 27 µM·h in [6] and 81 µM·h in [29]. In addition, the AUC was 12 µM·h in series [25], 6.7 µM·h in series [26] and 3.9 µM·h in series [27]. Also, the remaining at 24 h was 87% in [28] and 92% in series [31]. In series [30], the AUC at 24 h worked out at 270 µM·h. Moreover, the outcome with MC-38 was Active.

Values taken from ChEMBL document CHEMBL5260852, “Long-Acting Tumor-Activated Prodrug of a TGFβR Inhibitor” (J Med Chem, 2021).
